# Assay results reported in US20260007133A1, “HERBICIDAL COMPOSITION COMPRISING AZINE COMPOUNDS” (BASF SE, priority 2022, published 2026).
# Key:
# Assay type in all cases: in vivo
# [1] = system: Ambrosia artemisiifolia; test: Greenhouse pre-emergence (PRE) herbicidal test on AMBEL
# [2] = system: Echinochloa crus-galli; test: Greenhouse pre-emergence (PRE) herbicidal test on ECHCG; conditions: PRE, ECHCG, use rate 6.25 gai/ha, 20 DAT
# Method: (§1) The culture containers used were plastic pots containing loamy sand with approximately 3.0% of humus as substrate. The seeds of the test plants were sown separately for each species.
# (§2) The containers were irrigated gently to promote germination and growth and subsequently covered with transparent plastic hoods until the plants had rooted.
# (§3) Depending on the species, the plants were kept at 10-25° C. and 20-35° C., respectively.
# (§4) The test period extended over 2 to 4 weeks. During this time, the plants were tended and their response to the individual treatments was evaluated.
# (§5) Evaluation was carried out using a scale from 0 to 100. 100 means no emergence of the plants, or complete destruction of at least the above-ground parts, and 0 means no damage or normal course of growth. A good herbicidal activity is given at values of at least 70, and very good herbicidal activity is given at values of at least 85.
# (§6) As indicated application was either post emergent (POST) at the respective growth stage (GS) of the weed (BBCH code), or pre-emergent (PRE). […]
# [3] = system: Lolium multiflorum; test: Greenhouse pre-emergence (PRE) herbicidal test on LOLMU
# Summary of the method: (§7)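 Herbicidal effect was assessed 20 DAT after pre-emergence treatment of sown pots, using a 0-100 scale where 100 means no emergence or destruction of at least the above-ground parts.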
# [4] = system: Setaria viridis; test: Greenhouse pre-emergence (PRE) herbicidal test on SETVI
# Text: as §1
# For the pre-emergence treatment, the active compounds, suspended or emulsified in water, were applied directly after sowing by means of finely distributing nozzles. The containers were irrigated gently to promote germination and growth and subsequently covered with transparent plastic hoods until the plants had rooted. This cover caused uniform germination of the test plants unless this was adversely affected by the active compounds.
# as §3, §4, §5
# (§8) If not stated differently, the respective components A and B, and if appropriate, C were formulated as a 5% by weight strength emulsion concentrate and, with addition of the amount of solvent system, introduced into the spray liquor used for applying the active compound.
# as §6
# [5] = system: Ipomoea hederacea; test: Greenhouse post-emergence (POST) herbicidal test on IPOHE
# Method: as §1
# (§9) For the post-emergence treatment, the test plants were grown to a plant height of from 3 to 15 cm, depending on the plant habit, and only then treated with the active compounds which had been suspended or emulsified in water. To this end, the test plants were either sown directly, and grown in the same containers, or they were first grown separately as seedlings and transplanted into the test containers a few days prior to treatment.
# as §3, §4, §5, §8
# As indicated application was either post emergent (POST) at the respective growth stage (GS) of the weed (BBCH code), or pre-emergent (PRE).
# Assessment was 20 days after treatment (DAT).
# [6] = system: Abutilon theophrasti; test: Greenhouse pre-emergence (PRE) herbicidal test on ABUTH; conditions: Abutilon theophrasti, pre-emergence, 480 h, read-out: solo application % activity
# Summary of the method: as §7
# [7] = system: Alopecurus myosuroides; test: Greenhouse pre-emergence (PRE) herbicidal test on ALOMY; conditions: Alopecurus myosuroides, pre-emergence, 480 h
# Summary of the method: as §7
# [8] = system: Commelina benghalensis; test: Greenhouse pre-emergence (PRE) herbicidal test on COMBE
# Summary of the method: as §7
# [9] = system: Euphorbia heterophylla; test: Greenhouse pre-emergence (PRE) herbicidal test on EPHHL; conditions: Euphorbia heterophylla, pre-emergence, 480 h
# Summary of the method: as §7
# [10] = system: Abutilon theophrasti; test: Greenhouse post-emergence (POST) herbicidal test on ABUTH; conditions: Abutilon theophrasti, post-emergence, 480 h, read-out: solo application % activity
# Summary of the method: (§10)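 Weeds grown in loamy sand (~3.0% humus) to 3–15 cm were sprayed post-emergence with compounds suspended or emulsified in water, formulated as 5% emulsion concentrates. Plants were kept at 10-25 °C or 20-35 °C by species. Damage was scored 0–100 (100 = complete destruction) at 20 DAT.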
# [11] = system: Digitaria sanguinalis; test: Greenhouse post-emergence (POST) herbicidal test on DIGSA; conditions: Digitaria sanguinalis, post-emergence, 480 h, read-out: solo application % activity
# Summary of the method: as §10
# [12] = system: Echinochloa crus-galli; test: Greenhouse post-emergence (POST) herbicidal test on ECHCG; conditions: Echinochloa crus-galli, post-emergence, 480 h, read-out: solo application % activity
# Summary of the method: as §10
# [13] = system: Euphorbia heterophylla; test: Greenhouse post-emergence (POST) herbicidal test on EPHHL; conditions: Euphorbia heterophylla, post-emergence, 480 h, read-out: solo application % activity
# Summary of the method: as §10
# [14] = system: Amaranthus retroflexus; test: Greenhouse post-emergence (POST) herbicidal test on AMARE; conditions: Amaranthus retroflexus, post-emergence, 480 h, read-out: solo application % activity
# Method: as §1, §9, §3, §4, §5, §8, §6
# [15] = system: Geranium pusillum; test: Greenhouse post-emergence (POST) herbicidal test on GERPU; conditions: Geranium pusillum, post-emergence, 480 h, read-out: solo application % activity
# Summary of the method: as §10
# [16] = system: Amaranthus retroflexus; test: Greenhouse pre-emergence (PRE) herbicidal test on AMARE
# Method: as §1, §2, §3, §4, §5, §6
# [17] = read-out: solo application % activity
# [18] = Ambrosia artemisiifolia, pre-emergence, 480 h, read-out: solo application % activity
# [19] = Commelina benghalensis, pre-emergence, 480 h, read-out: solo application % activity
# [20] = Ambrosia artemisiifolia, pre-emergence, 480 h, read-out: % activity
# [21] = Commelina benghalensis, pre-emergence, 480 h, read-out: % activity
# [22] = Lolium multiflorum, pre-emergence, 480 h, read-out: % activity
structure (smiles),measurement,setting,value
"Cc1c(C(=O)c2cnn(C)c2O)ccc(S(C)(=O)=O)c1C1=NOCC1 [Topramezone, topramezone]",% activity,"[1]; PRE, AMBEL, use rate 6.25 gai/ha, 20 DAT",0%
same,% activity,[2],10%
same,% activity,"[3]; PRE, LOLMU, use rate 3.125 gai/ha, 20 DAT",0%
same,% activity,"[4]; PRE, SETVI, use rate 3.125 gai/ha, 20 DAT",0%
same,% activity,"[5]; POST, IPOHE, use rate 3.125 gai/ha, 20 DAT",15%
same,% activity,"[5]; POST, IPOHE, use rate 6.25 gai/ha, 20 DAT",35%
CC(C)N1C(=O)c2ccccc2NS1(=O)=O [Bentazone],inhibition at 240 g/ha,"[6]; PRE, ABUTH, use rate 240 gai/ha, 20 DAT",30%
same,inhibition at 240 g/ha,"[7]; PRE, ALOMY, use rate 240 gai/ha, 20 DAT, read-out: solo application % activity",15%
same,inhibition at 240 g/ha,"[1]; Ambrosia artemisiifolia, pre-emergence, 480 h, PRE, AMBEL, use rate 240 gai/ha, 20 DAT, read-out: solo application % activity",0%
same,inhibition at 480 g/ha,"[1]; Ambrosia artemisiifolia, pre-emergence, 480 h, PRE, AMBEL, use rate 480 gai/ha, 20 DAT, read-out: solo application % activity",0%
same,inhibition at 240 g/ha,"[8]; Commelina benghalensis, pre-emergence, 480 h, PRE, COMBE, use rate 240 gai/ha, 20 DAT, read-out: solo application % activity",0%
same,inhibition at 240 g/ha,"[9]; PRE, EPHHL, use rate 240 gai/ha, 20 DAT, read-out: solo application % activity",5%
same,inhibition at 480 g/ha,"[9]; PRE, EPHHL, use rate 480 gai/ha, 20 DAT, read-out: solo application % activity",5%
same,inhibition at 240 g/ha,"[4]; Setaria viridis, pre-emergence, 480 h, PRE, SETVI, use rate 240 gai/ha, 20 DAT, read-out: solo application % activity",10%
same,inhibition at 480 g/ha,"[4]; Setaria viridis, pre-emergence, 480 h, PRE, SETVI, use rate 480 gai/ha, 20 DAT, read-out: solo application % activity",0%
same,inhibition at 480 g/ha,"[10]; POST, ABUTH, use rate 480 gai/ha, 20 DAT",10%
same,inhibition at 240 g/ha,"[11]; POST, DIGSA, use rate 240 gai/ha, 20 DAT",0%
same,inhibition at 240 g/ha,"[12]; POST, ECHCG, use rate 240 gai/ha, 20 DAT",10%
same,inhibition at 480 g/ha,"[12]; POST, ECHCG, use rate 480 gai/ha, 20 DAT",30%
same,inhibition at 240 g/ha,"[13]; POST, EPHHL, use rate 240 gai/ha, 20 DAT",0%
same,inhibition at 480 g/ha,"[13]; POST, EPHHL, use rate 480 gai/ha, 20 DAT",0%
same,inhibition at 240 g/ha,"[5]; Ipomoea hederacea, post-emergence, 480 h, POST, IPOHE, use rate 240 gai/ha, 20 DAT, read-out: solo application % activity",0%
"CCSC(C)CC1CC(=O)C(/C(CC)=N/OC/C=C/Cl)=C(O)C1 (centres unmarked) [Clethodim, clethodim]",inhibition at 5 g/ha,[6],0%
same,inhibition at 5 g/ha,[7]; [17],60%
same,inhibition at 10 g/ha,[7]; [17],75%
same,inhibition at 5 g/ha,[1]; [18],0%
same,inhibition at 10 g/ha,[1]; [18],0%
same,inhibition at 5 g/ha,[8]; [19],0%
same,inhibition at 10 g/ha,[8]; [19],0%
same,inhibition at 5 g/ha,[9]; [17],0%
same,inhibition at 10 g/ha,[9]; [17],0%
same,inhibition at 5 g/ha,"[3]; Lolium multiflorum, pre-emergence, 480 h, read-out: solo application % activity",60%
same,inhibition at 5 g/ha,"[4]; Setaria viridis, pre-emergence, 480 h, read-out: solo application % activity",25%
same,inhibition at 10 g/ha,[10],0%
same,inhibition at 5 g/ha,[14],0%
same,inhibition at 10 g/ha,[14],0%
same,inhibition at 10 g/ha,[11],80%
same,inhibition at 5 g/ha,[12],80%
same,inhibition at 5 g/ha,[13],0%
same,inhibition at 10 g/ha,[13],0%
same,inhibition at 5 g/ha,[15],0%
same,inhibition at 10 g/ha,[15],0%
same,inhibition at 5 g/ha,"[5]; Ipomoea hederacea, post-emergence, 480 h, read-out: solo application % activity",0%
"CCOC(=O)C(C)Oc1ccc(Oc2cnc3cc(Cl)ccc3n2)cc1 (centres unmarked) [Quizalofop-Ethyl, quizalofop-ethyl]",pest or weed control at 2 g/ha,[7]; read-out: % activity,0%
same,pest or weed control at 4 g/ha,"[16]; Amaranthus retroflexus, pre-emergence, 480 h, read-out: % activity",0%
same,pest or weed control at 2 g/ha,[1]; [20],0%
same,pest or weed control at 4 g/ha,[1]; [20],0%
same,pest or weed control at 2 g/ha,[8]; [21],0%
same,pest or weed control at 4 g/ha,[8]; [21],0%
same,pest or weed control at 4 g/ha,[9]; read-out: % activity,5%
same,pest or weed control at 2 g/ha,[3]; [22],0%
same,pest or weed control at 4 g/ha,[3]; [22],0%
"COc1c(Cl)ccc(-c2nc(C(=O)OCc3ccccc3)c(Cl)c(N)c2F)c1F [Florpyrauxifen-Benzyl, florpyrauxifen-benzyl]",% activity,"[16]; AMARE PRE, use rate 5 gai/ha",0%
same,% activity,"[1]; AMBEL PRE, use rate 1.25 gai/ha",30%
same,% activity,"[1]; AMBEL PRE, use rate 5 gai/ha",45%
same,% activity,"[8]; COMBE PRE, use rate 5 gai/ha",45%
